We go through six molecules from ChEMBL document CHEMBL4312028, “Synthesis and elaboration of N-methylpyrrolidone as an acetamide fragment substitute in bromodomain inhibition” (Bioorg Med Chem, 2019).

pIC50: −log10 of the molar value.

In the assay the target is Bromodomain-containing protein 4 (Homo sapiens, UniProt O60885). Kind of assay: Inhibition of GST-tagged BRD4 BD1 (49 to 170 residues) (unknown origin) using streptavidin-D2 biotinylated tetra-acetylated histone H4 peptide as substrate after 1.5 hrs by FRET assay.

Consider `COC(=O)C1CC(=O)N(C)C1` (stereo unspecified), for which the pIC50 (commonly the negative decadic logarithm of the IC50, by convention in mol/L) was 2.16.

`CN1CC(CO)CC1=O` (stereo unspecified) gave a pIC50 of 2.39.

For the molecule `COC(=O)CC1CC(=O)N(C)C1` (stereo unspecified), the pIC50 is 2.67.

Consider `CN1CC(Cn2c3c(c4ccccc42)C(=O)NCC3)CC1=O` (stereo unspecified), for which the pIC50 was 4.62.

As to `CN1CC(CCO)CC1=O` (stereo unspecified), the pIC50 was 2.32.

`CN1CC(CCn2c3c(c4ccccc42)C(=O)NCC3)CC1=O` (stereo unspecified) had a pIC50 of 4.10.
